Data: patent US10174015B2, “Substituted heterocyclic derivative, preparation method and use thereof” (Xiamen University, priority 2014, dated 2019)
Like-named read-outs stand apart in the source and are kept apart here. Marks after values point to notes of the source that are not given here.

Experiments:
[1] = test system: adjuvant-induced arthritis rat models; experiment: Adjuvant-induced osteoarthritis pain, foot swelling degree; type: in vivo, rats; conditions: 10 mg/Kg; for Foot swelling degree after inflammation: X ± S, n = 10; for effect of inhibiting osteoarthritis pain: rats, indometacin 10 mg/Kg
Experimental: Typical model for studying inflammatory pain medically was used to evaluate the therapeutic effects of compounds on inflammatory pain. 0.1 mL Freund's complete adjuvant was intradermally injected to toe of the left hind foot of the rats in each group to obtain adjuvant-induced arthritis rat models. Foot volume method was used to measure primary and secondary foot swelling degree (swelling degree=volume after inflammation−volume before inflammation), and polyarticular arthritis were scored (5 scoring grades: 0 represents no red swelling; 4 represents red swelling at all the paws including anklebone. The scores are accumulated according to the lesion degree of the rest three limbs not injected with adjuvant, and the highest score is 12). Before inflammation and at 6 h, 12 h, 18 h and 24 h after inflammation, Paw Volume Meter was used to measure the foot volume at the inflammatory side, and the swelling degree was calculated. The model can represent inflammatory pain including, but not only limited to: osteoarthritis pain and fibromyalgia syndrome, inflammatory pain of rheumatic and rheumatoid arthritis, inflammatory pain of endometriosis, inflammatory toothache, ankylosing spondylitis pain, and gouty arthritis pain.

RAW264.7 cells = experiment: Assay on cytotoxicity (CCK8); type: cell-based; conditions: RAW264.7 cells, 3, 10, 30, 100 μM, 24 h and 48 h; compound 9 except at 100 μM
Experimental: RAW264.7 cells in good growing state (purchased from American Type Culture Collection, ATCC, Beijing), at a density of about 80%-90%, were scraped off with a cell scraper to prepare a cell suspension. After counting, the cells were accurately seeded in a 96-well plate, at 100 μL per well, wherein the total number of cells retained the same, at about 20000 cells/well, and the same amount of culture medium (which was DMEM (Gibco, Shanghai) medium containing 10% fetal bovine serum (PAA), 1% penicillin-streptomycin (PAA)) was added. The 96-well plate was placed in an incubator to preincubate for 24 h (37° C., 5% CO2). The marginal wells of the plate were filled with an equal amount of PBS, but were not seeded with cells, so as to prevent evaporation of the culture medium in the experimental group. […] After incubating the plate in the incubator for a period of time (24 or 48 h), 10 μL CCK8 solution was added to each well, and then the plate was incubated in incubator for 1.5 h. the absorbance OD value was determined at 450 nm by microplate reader, and the OD value was proportional to the number of living cells. […]

zebrafish embryos = type: in vivo; conditions: for Death number (72 h): n = 30; for Body length (72 h) / Hatching number (72 h) / Heartbeat (72 h) / Unhatching number (72 h) / hatching rate: zebrafish, in vivo, 72 h
Experimental: Fertilized eggs (donated by Zebrafish Research Group, School of Life Sciences, Xiamen University) were incubated in freshly prepared zebrafish embryo culture medium, which was replaced by fresh culture medium every day, and cultured in 28.5° C. incubator. Pure water was placed in the incubator to ensure a certain humidity in the culture environment. The formulation for zebrafish embryo culture medium was following: 5 mM NaCl, 0.17 mM KCl, 0.33 mM CaCl2, 0.33 mM MgSO4, 10-5% methylene blue. The culture medium was prepared with pure water. For example, NaCl: 292.2 mg, KCl: 12.68 mg, CaCl2: 36.63 mg, MgSO4: 39.72 mg, and methylene blue: 0.1 μL were needed for the preparation of 1 L culture medium.
7 Groups were set for each test compound, including 5 experimental groups relating to the test compound at different concentrations (solutions containing the test compound at different concentrations were prepared by using zebrafish embryo culture medium, wherein the concentrations were 10 mg/L, 3 mg/L, 1 mg/L, 0.3 mg/L, 0.1 mg/L), 1 solvent control group (DMSO) and 1 blank control group. The positive control drug was OTC analgesic ibuprofen at concentrations as described above. A 96-well cell culture plate was used to perform the experiment, three wells in parallel were used for each experimental group, and 10 fish eggs were contained in each well.
Culture medium containing a test compound was prepared, and the culture medium was added to a 96-well plate in advance, and each fertilized egg (by reference to the experimental method in OECD No. 212 document, fertilized eggs, which developed normally within 2 h after fertilization, were selected and subjected to exposure. Transparent fish eggs visible to naked eye were normally fertilized, while white fish eggs were dead and discarded. After the selection, the normally fertilized eggs had begun to divide as observed under microscope) was then independently placed in a different well, and cultured in the culture medium containing a test compound at a different concentration. Embryo development status at different stages was observed and photographed with invert microscope, including: […]
II. Hatching number and death number were counted at 72 h after fertilization, and hatching rate and mortality were calculated; […]
V. Heartbeat of young fishes (times/min) was recorded at 72 h and 96 h after fertilization (Recording method: heartbeat of young fishes could be clearly observed under microscope, and the number of heartbeats was recorded for 30 s).

O=C(CCCCCc1cccc(Cl)c1)N1CCOC1=O [Compound 9, 3-Chlorophenylhexanoyl Oxazolidinone]
Foot swelling degree after inflammation ([1]; 6 h): 0.44 ± 0.09^c mL
Foot swelling degree after inflammation ([1]; 12 h): 0.75 ± 0.24^c mL
Foot swelling degree after inflammation ([1]; 18 h): 1.24 ± 0.24^b mL
Foot swelling degree after inflammation ([1]; 24 h): 1.06 ± 0.18^c mL
effect of inhibiting osteoarthritis pain [1]: significant effects of inhibiting osteoarthritis pain
effect on cell viability (RAW264.7 cells): no effect on cell viability
Death number (72 h) (zebrafish embryos; 0.1 mg/L): 2
Death number (72 h) (zebrafish embryos; 0.3 mg/L): 2
Death number (72 h) (zebrafish embryos; 1 mg/L): 3
Death number (72 h) (zebrafish embryos; 3 mg/L): 30
Death number (72 h) (zebrafish embryos; 10 mg/L): 30
Body length (72 h) (zebrafish embryos; 0.1 mg/L): 3.90 ± 0.05 mm
Hatching number (72 h) (zebrafish embryos; 0.1 mg/L): 28
Heartbeat (72 h) (zebrafish embryos; 0.1 mg/L): 129 ± 2.73 per min
Unhatching number (72 h) (zebrafish embryos; 0.1 mg/L): 0
Body length (72 h) (zebrafish embryos; 0.3 mg/L): 3.86 ± 0.03 mm
Hatching number (72 h) (zebrafish embryos; 0.3 mg/L): 28
Heartbeat (72 h) (zebrafish embryos; 0.3 mg/L): 130 ± 3.22 per min
Unhatching number (72 h) (zebrafish embryos; 0.3 mg/L): 0
Body length (72 h) (zebrafish embryos; 1 mg/L): 3.88 ± 0.04 mm
Hatching number (72 h) (zebrafish embryos; 1 mg/L): 27
Heartbeat (72 h) (zebrafish embryos; 1 mg/L): 130 ± 2.76 per min
Unhatching number (72 h) (zebrafish embryos; 1 mg/L): 0
hatching rate (zebrafish embryos; 1 mg/L): 90%
Hatching number (72 h) (zebrafish embryos; 3 mg/L): 0
Unhatching number (72 h) (zebrafish embryos; 3 mg/L): 0
Hatching number (72 h) (zebrafish embryos; 10 mg/L): 0
Unhatching number (72 h) (zebrafish embryos; 10 mg/L): 0

O=C(CCCCCc1ccccc1)N1CCOC1=O [Compound 2, Phenylhexanoyl Oxazolidinone]
Foot swelling degree after inflammation ([1]; 6 h): 0.35 ± 0.07^c mL
Foot swelling degree after inflammation ([1]; 12 h): 0.65 ± 0.13^c mL
Foot swelling degree after inflammation ([1]; 18 h): 1.06 ± 0.14^c mL
Foot swelling degree after inflammation ([1]; 24 h): 0.89 ± 0.21^c mL
effect of inhibiting osteoarthritis pain [1]: significant effects of inhibiting osteoarthritis pain
effect on cell viability (RAW264.7 cells): no effect on cell viability
Death number (72 h) (zebrafish embryos; 0.1 mg/L): 3
Death number (72 h) (zebrafish embryos; 0.3 mg/L): 2
Death number (72 h) (zebrafish embryos; 1 mg/L): 1
Death number (72 h) (zebrafish embryos; 3 mg/L): 30
Death number (72 h) (zebrafish embryos; 10 mg/L): 30
Body length (72 h) (zebrafish embryos; 0.1 mg/L): 3.86 ± 0.05 mm
Hatching number (72 h) (zebrafish embryos; 0.1 mg/L): 27
Heartbeat (72 h) (zebrafish embryos; 0.1 mg/L): 130 ± 3.00 per min
Unhatching number (72 h) (zebrafish embryos; 0.1 mg/L): 0
Body length (72 h) (zebrafish embryos; 0.3 mg/L): 3.87 ± 0.05 mm
Hatching number (72 h) (zebrafish embryos; 0.3 mg/L): 28
Heartbeat (72 h) (zebrafish embryos; 0.3 mg/L): 130 ± 3.58 per min
Unhatching number (72 h) (zebrafish embryos; 0.3 mg/L): 0
Body length (72 h) (zebrafish embryos; 1 mg/L): 3.85 ± 0.06 mm
Hatching number (72 h) (zebrafish embryos; 1 mg/L): 29
Heartbeat (72 h) (zebrafish embryos; 1 mg/L): 128 ± 3.29 per min
Unhatching number (72 h) (zebrafish embryos; 1 mg/L): 0
hatching rate (zebrafish embryos; 1 mg/L): 96.67%
Hatching number (72 h) (zebrafish embryos; 3 mg/L): 0
Unhatching number (72 h) (zebrafish embryos; 3 mg/L): 0
Hatching number (72 h) (zebrafish embryos; 10 mg/L): 0
Unhatching number (72 h) (zebrafish embryos; 10 mg/L): 0
